Reference: patent US20230277534A1 (Plexxikon Inc., priority 2011, published 2023)

Target: B-Raf V600E (Homo sapiens (Human), UniProt P15056, V600E)
Experiment: B-Raf V600E kinase biochemical activity assay (AlphaScreen, biotin-MEK1 substrate)
Settings: 100 μM ATP
Description: Assays for biochemical and cell based activity are known in the art, for example, as described in PCT publication WO 2007/002433, the disclosure of which is hereby incorporated by reference as it relates to such assays. For example, the biochemical activity IC50 values are determined with respect to inhibition of B-Raf V600E kinase activity or p-Erk kinase activity, where inhibition of phosphorylation of a peptide substrate is measured as a function of compound concentration. Compounds to be tested are diluted in dimethyl sulfoxide to a concentration of 0.1 mM. These are serially diluted 15 μL into 30 μL of dimethyl sulfoxide seven times in 96 well plates for a total of 8 dilution points, and for each dilution point 1 μL is added to a well of an assay plate. Plates are prepared such that each well in a 384 well plate contains 1 μL of compound in 10 μL volume with 0.1 ng Raf enzyme (i.e. any of B-Raf, c-Raf-1 or B-Raf V600E, Upstate Biotechnology or prepared by methods known to one of skill in the art), 50 mM HEPES, pH 7.0, 50 mM NaCl, 2 mM MgCl2, 1 mM MnCl2, 0.01% Tween-20, 1 mM DTT, and 100 nM biotin-MEK1 as substrate. The reaction is started with addition of 10 μL of 200 μM ATP (i.e. final 100 μM ATP). After incubation of the kinase reaction for 45 minutes at room temperature, 5 μL/well of Stop Solution is added (25 mM Hepes pH 7.5, 100 mM EDTA, 0.01% BSA with donor beads (Streptavidin coated beads, Perkin Elmer), acceptor beads (Protein A coated, Perkin Elmer), and anti phosphor MEK1/2 antibody (CellSignal), each at final concentration 10 μg/mL). The plates are incubated for 3 hours at room temperature and read on Envision reader (Perkin Elmer). Phosphorylation of Mek1 results in binding of the anti-phosphor-MEK1/2antibody and association of the donor and acceptor beads such that signal correlates with kinase activity. The signal vs. compound concentration is used to determine the IC50.

Sequence of B-Raf V600E (P15056 whole entry V600E): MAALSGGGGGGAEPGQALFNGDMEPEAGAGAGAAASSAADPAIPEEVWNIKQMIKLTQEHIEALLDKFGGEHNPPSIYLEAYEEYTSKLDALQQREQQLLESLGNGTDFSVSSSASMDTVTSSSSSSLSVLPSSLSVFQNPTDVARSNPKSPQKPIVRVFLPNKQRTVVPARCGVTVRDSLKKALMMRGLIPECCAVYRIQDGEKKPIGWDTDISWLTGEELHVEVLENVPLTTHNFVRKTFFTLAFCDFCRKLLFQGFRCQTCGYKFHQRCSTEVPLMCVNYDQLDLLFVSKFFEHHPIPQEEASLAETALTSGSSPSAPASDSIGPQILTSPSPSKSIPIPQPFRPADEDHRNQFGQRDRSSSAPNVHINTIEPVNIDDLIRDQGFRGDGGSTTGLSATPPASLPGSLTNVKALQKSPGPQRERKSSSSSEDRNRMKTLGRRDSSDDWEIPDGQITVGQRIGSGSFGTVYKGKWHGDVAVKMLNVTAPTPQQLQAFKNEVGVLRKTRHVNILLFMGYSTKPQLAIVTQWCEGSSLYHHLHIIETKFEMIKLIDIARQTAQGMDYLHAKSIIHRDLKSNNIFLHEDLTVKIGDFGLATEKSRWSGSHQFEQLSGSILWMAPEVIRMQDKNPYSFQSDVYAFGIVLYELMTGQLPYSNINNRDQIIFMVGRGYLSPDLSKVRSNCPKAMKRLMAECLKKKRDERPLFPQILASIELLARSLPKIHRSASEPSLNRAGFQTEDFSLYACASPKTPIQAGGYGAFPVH

| Structure (SMILES) | IC50 [µM] |
| --- | --- |
| COc1ncc(-c2cnc3[nH]cc(C(=O)c4cccc(NS(=O)(=O)N(C)C(C)C)c4F)c3c2)cn1 [Compound P-0075, 3-[2-fluoro-3-[[isopropyl(methyl)sulfamoyl]amino]benzoyl]-5-(2-methoxypyrimidin-5-yl)-1H-pyrrolo[2,3-b]pyridine] | > 0.1 |
| CCCN(C)S(=O)(=O)Nc1cccc(C(=O)c2c[nH]c3ncc(-c4cnc(C5CC5)nc4)cc23)c1F [Compound P-0086, 5-(2-cyclopropylpyrimidin-5-yl)-3-[2-fluoro-3-[[methyl(propyl)sulfamoyl]amino]benzoyl]-1H-pyrrolo[2,3-b]pyridine] | < 0.1 |
| CCN(C)S(=O)(=O)Nc1cccc(C(=O)c2c[nH]c3ncc(-c4ccc(C5CC5)nc4)cc23)c1F [Compound P-0087, 5-(6-cyclopropyl-3-pyridyl)-3-[3-[[ethyl(methyl)sulfamoyl]amino]-2-fluoro-benzoyl]-1H-pyrrolo[2,3-b]pyridine] | < 0.1 |
| N#Cc1ncc(-c2cnc3[nH]cc(C(=O)c4cccc(NS(=O)(=O)N5CCCC5)c4F)c3c2)cn1 [Compound P-0091, N-[3-[5-(2-cyanopyrimidin-5-yl)-1H-pyrrolo[2,3-b]pyridine-3-carbonyl]-2-fluoro-phenyl]pyrrolidine-1-sulfonamide] | < 0.1 |
| CN(C)S(=O)(=O)Nc1cccc(C(=O)c2c[nH]c3ncc(-c4cnc(C#N)nc4)cc23)c1F [Compound P-0096, 5-(2-cyanopyrimidin-5-yl)-3-[3-(dimethylsulfamoylamino)-2-fluoro-benzoyl]-1H-pyrrolo[2,3-b]pyridine] | < 0.1 |
| CN(C)S(=O)(=O)Nc1cccc(C(=O)c2c[nH]c3ncc(-c4ccc(C(C)(C)O)cc4)cc23)c1F [Compound P-0103, 3-[3-(dimethylsulfamoylamino)-2-fluoro-benzoyl]-5-[4-(1-hydroxy-1-methyl-ethyl)phenyl]-1H-pyrrolo[2,3-b]pyridine] | < 0.1 |
| CC(C)(O)c1ccc(-c2cnc3[nH]cc(C(=O)c4cccc(NS(=O)(=O)N5CCCC5)c4F)c3c2)cc1 [Compound P-0105, N-[2-fluoro-3-[5-[4-(1-hydroxy-1-methyl-ethyl)phenyl]-1H-pyrrolo[2,3-b]pyridine-3-carbonyl]phenyl]pyrrolidine-1-sulfonamide] | < 0.1 |
| CCN(C)S(=O)(=O)Nc1cccc(C(=O)c2c[nH]c3ncc(-c4cnc(N5CCCC5)nc4)cc23)c1F [Compound P-0108, 3-[3-1[[ethyl(methyl)sulfamoyl]amino]-2-fluoro-benzoyl]-5-(2-pyrrolidin-1-ylpyrimidin-5-yl)-1H-pyrrolo[2,3-b]pyridine] | < 0.1 |
| CCCNS(=O)(=O)Nc1cccc(C(=O)c2c[nH]c3ncc(C)cc23)c1F [Compound P-0223, [2-fluoro-3-(propylsulfamoylamino)phenyl]-(5-methyl-1H-pyrrolo[2,3-b]pyridin-3-yl)methanone] | > 0.1 |
| O=C(c1cccc(NS(=O)(=O)N2CCCC2)c1F)c1c[nH]c2ncc(-c3cnc(NC4CC4)nc3)cc12 [Compound P-0232, N-[3-[5-[2-(cyclopropylamino)pyrimidin-5-yl]-1H-pyrrolo[2,3-b]pyridine-3-carbonyl]-2-fluoro-phenyl]pyrrolidine-1-sulfonamide] | < 0.1 |
| CCOc1cnc(-c2cnc3[nH]cc(C(=O)c4c(F)ccc(NS(=O)(=O)N(C)C)c4F)c3c2)cn1 [Compound P-0244, 3-[3-(dimethylsulfamoylamino)-2,6-difluoro-benzoyl]-5-(5-ethoxypyrazin-2-yl)-1H-pyrrolo[2,3-b]pyridine] | < 0.1 |
| CN(C)S(=O)(=O)Nc1cccc(C(=O)c2c[nH]c3ncc(-c4ccc(C(C)(C)C#N)cc4)cc23)c1F [Compound P-0245, 5-[4-(1-cyano-1-methyl-ethyl)phenyl]-3-[3-(dimethylsulfamoylamino)-2-fluoro-benzoyl]-1H-pyrrolo[2,3-b]pyridine] | < 0.1 |
| COC(=O)C1(c2ccc(-c3cnc4[nH]cc(C(=O)c5cccc(NS(=O)(=O)N6CCCC6)c5F)c4c3)cc2)CC1 [Compound P-0254, methyl 1-[4-[3-[2-fluoro-3-(pyrrolidin-1-ylsulfonylamino)benzoyl]-1H-pyrrolo[2,3-b]pyridin-5-yl]phenyl]cyclopropanecarboxylate] | < 0.1 |
| CN(C)S(=O)(=O)Nc1ccc(F)c(C(=O)c2c[nH]c3ncc(-c4ccc(C(C)(C)C#N)cc4)cc23)c1F [Compound P-0255, 5-[4-(1-cyano-1-methyl-ethyl)phenyl]-3-[3-(dimethylsulfamoylamino)-2,6-difluoro-benzoyl]-1H-pyrrolo[2,3-b]pyridine] | < 0.1 |
| CCOC(=O)C1CCCN1S(=O)(=O)Nc1cccc(C(=O)c2c[nH]c3ncc(-c4cnc(OC)nc4)cc23)c1F (stereo not shown) [Compound P-0257, ethyl 1-[[2-fluoro-3-[5-(2-methoxypyrimidin-5-yl)-1H-pyrrolo[2,3-b]pyridine-3-carbonyl]phenyl]sulfamoyl]pyrrolidine-2-carboxylate] | > 0.1 |

The remaining lines, values ahead:

| IC50 [µM] | Structure (SMILES) |
| --- | --- |
| < 0.1 | COC(=O)CCS(=O)(=O)Nc1cccc(C(=O)c2c[nH]c3ncc(-c4cnc(OC)nc4)cc23)c1F [Compound P-0066, methyl 3-[[2-fluoro-3-[5-(2-methoxypyrimidin-5-yl)-1H-pyrrolo[2,3-b]pyridine-3-carbonyl]phenyl]sulfamoyl]propanoate] |
| < 0.1 | COc1ncc(-c2cnc3[nH]cc(C(=O)c4cccc(NS(=O)(=O)C5CC5)c4F)c3c2)cn1 [Compound P-0067, N-[2-fluoro-3-[5-(2-methoxypyrimidin-5-yl)-1H-pyrrolo[2,3-b]pyridine-3-carbonyl]phenyl]cyclopropanesulfonamide] |
| < 0.1 | CCNS(=O)(=O)Nc1cccc(C(=O)c2c[nH]c3ncc(-c4cnc(OC)nc4)cc23)c1F [Compound P-0068, [3-(ethylsulfamoylamino)-2-fluoro-phenyl]-[5-(2-methoxypyrimidin-5-yl)-1H-pyrrolo[2,3-b]pyridin-3-yl]methanone] |
| < 0.1 | CCNS(=O)(=O)Nc1cccc(C(=O)c2c[nH]c3ncc(I)cc23)c1F [Compound P-0069, [3-(ethylsulfamoylamino)-2-fluoro-phenyl]-(5-iodo-1H-pyrrolo[2,3-b]pyridin-3-yl)methanone] |
| < 0.1 | CCCN(C)S(=O)(=O)Nc1ccc(F)c(C(=O)c2c[nH]c3ncc(-c4ccc(C5(C#N)CC5)cc4)cc23)c1F [Compound P-0079, 5-[4-(1-cyanocyclopropyl)phenyl]-3-[2,6-difluoro-3-[[methyl(propyl)sulfamoyl]amino]benzoyl]-1H-pyrrolo[2,3-b]pyridine] |
| < 0.1 | CCCN(C)S(=O)(=O)Nc1cccc(C(=O)c2c[nH]c3ncc(-c4cnc(NC5CC5)nc4)cc23)c1F [Compound P-0082, 5-[2-(cyclopropylamino)pyrimidin-5-yl]-3-[2-fluoro-3-[[methyl(propyl)sulfamoyl]amino]benzoyl]-1H-pyrrolo[2,3-b]pyridine] |
| < 0.1 | COc1ncc(-c2cnc3[nH]cc(C(=O)c4cccc(NS(=O)(=O)N(C)CC5CC5)c4F)c3c2)cn1 [Compound P-0083, 3-[3-[[cyclopropylmethyl(methyl)sulfamoyl]amino]-2-fluoro-benzoyl]-5-(2-methoxypyrimidin-5-yl)-1H-pyrrolo[2,3-b]pyridine] |
